We go through 10 compounds from ChEMBL document CHEMBL1201862, “PubChem BioAssay data set” (2004).

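Test compounds were applied to cells in 96-well plates for 48 hours at 5 doses. GI50 = concentration required for 50% inhibition of growth.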 Calls of active or inactive are those of the source. Cut-off read from the data, not from the text of the source: active = GI50 up to about 1.1 µM and inactive = higher.

Common to all, as to assay: inhibition of tumour cell growth, NCI panel, 48 h
Test [1] has as its system NCI/ADR-RES.
For test [2], the system named is HOP-62.
For test [3], the system named is UO-31.
Test [4] deals with SK-MEL-5.
For test [5], the system named is OVCAR-4.
The subject of test [6] is Hs-578T.
Test [7] relates to SF-295.
For test [8], the system named is MOLT-4.
The test system of test [9] is SNB-75.
For test [10], the system named is EKVX.
The subject of test [11] is U-251.
Test [12] deals with RPMI-8226.
In test [13] the test system is K562.
For test [14], the system named is ACHN.
Test [15] concerns IGROV-1.
Test [16] relates to SK-MEL-28.
For test [17], the system named is RXF 393.
In test [18] the test system is A498.
Test [19] relates to MDA-MB-435.
Test [20] deals with SR.

Take `O=C(OCC12CC3CC(CC(C3)C1)C2)c1ccc(NCc2cc(O)ccc2O)cc1`: the GI50 was 1.47 µM (inactive) in test [1]; 4.62 µM (inactive) in test [2]; 0.671 µM (active) in test [3]; 1.32 µM (inactive) in test [4]; 1.05 µM (active) in test [5]; 2.14 µM (inactive) in [6]. Also, the GI50 was 3.76 µM (inactive) in test [7]; 0.115 µM (active) in test [8]; 1.81 µM (inactive) in test [9]; 2.7 µM (inactive) in test [10]; 1.02 µM (active) in test [11]; 0.199 µM (active) in [12]. For the same compound, the GI50 in test [13] is 0.431 µM (active); in test [14], 2.01 µM (inactive); in test [15], 0.131 µM (active); in [16], 1.54 µM (inactive); in [17] it was 1.29 µM (inactive); in test [18] it was 3.72 µM (inactive). Also, the GI50 in [19] is 1.99 µM (inactive).

For the compound `COc1cc(NCc2ccc3oc(=O)c(-c4ccccc4)nc3c2)cc(OC)c1OC`, the GI50 in [1], in test [20], in [2], in test [3], in test [4] and in [5] was > 10 µM (inactive) throughout. The GI50 in [6], in test [7], in [8], in [9], in test [10] and in test [11] was > 10 µM (inactive) throughout. Besides, the GI50 in [12], in test [13], in test [14], in [15], in [16] and in test [17] was > 10 µM (inactive) in each case. Moreover, the GI50 in test [19] is > 10 µM (inactive).

As for `COc1cc(C[C@H]2C(=O)OC[C@@H]2Cc2ccc(OC)c(OC)c2)cc(OC)c1`, the GI50 in test [1] was 32.1 µM (inactive); in test [20], 30.5 µM (inactive); in test [2] it was > 100 µM (inactive); in test [3], 39.6 µM (inactive); in [4], 16.8 µM (inactive); in test [5], 29.7 µM (inactive). Moreover, the GI50 in test [6] was > 100 µM (inactive); in test [7], 88.1 µM (inactive); in test [8], 27.2 µM (inactive); in test [9], 40.6 µM (inactive); in test [10], 55.6 µM (inactive); in test [11], 70.8 µM (inactive). For the same compound, the GI50 in test [12] is 52.7 µM (inactive); in test [13], 31.5 µM (inactive); in [14], 31.2 µM (inactive); in [15], > 100 µM (inactive); in [16] it was 62.2 µM (inactive); in test [17], > 100 µM (inactive). Besides, in test [19], the GI50 was 55.7 µM (inactive).

`N#CC12C(=O)N3C(=NC(c4ccccc4)NC3c3ccccc3)C1(C#N)C(c1ccccc1)NC1=C2CCC1` (centres undefined): the GI50 in [1], in test [2], in [3], in test [4], in test [5] and in test [6] was > 100 µM (inactive) throughout. Besides, the GI50 in [7], in test [8], in test [9], in test [10], in [11] and in test [12] was > 100 µM (inactive) each time. For the same compound, the GI50 in test [13] is 63.5 µM (inactive); in [14] it was > 100 µM (inactive); in test [15] it was > 100 µM (inactive); in test [16] it was > 100 µM (inactive); in [17], > 100 µM (inactive); in test [18] it was > 100 µM (inactive). Moreover, the GI50 in test [19] was > 100 µM (inactive).

Turning to `CC1(C)CC(C#Cc2ccccc2)CC(C)(C)N1O`, the GI50 in [1] is 23.9 µM (inactive); in [20] it was 52.7 µM (inactive); in test [2], 16.4 µM (inactive); in test [3] it was 12.2 µM (inactive); in test [4], 16.1 µM (inactive); in [5], 43.4 µM (inactive). Further, the GI50 in test [6] was 19 µM (inactive); in [7], 15.6 µM (inactive); in test [8], 46 µM (inactive); in [9], 16.9 µM (inactive); in test [10], 23.6 µM (inactive); in test [11], 23.9 µM (inactive). Further, the GI50 was 5.18 µM (inactive) in test [12]; 22.8 µM (inactive) in test [13]; 25.8 µM (inactive) in [14]; 29.9 µM (inactive) in test [15]; 16.6 µM (inactive) in test [16]; 19.5 µM (inactive) in test [17]. Also, the GI50 in [19] was 21.6 µM (inactive).

In the case of `O=C1NC(N2CCCC(CO)C2)=N/C1=C\c1ccc(O)cc1` (centres undefined), the GI50 in test [1], in test [20], in test [2], in test [3], in test [4] and in test [5] was > 100 µM (inactive) in each case. In addition, the GI50 in test [6], in test [7], in test [8], in [9], in [10] and in test [11] was > 100 µM (inactive) throughout. The GI50 in test [12], in test [13], in [14], in test [15], in test [16] and in test [17] was > 100 µM (inactive) in each case. For the same compound, the GI50 in test [19] was > 100 µM (inactive).

For the compound `CCC1CCC2c3c([nH]c4ccccc34)C3C(=O)N(c4ccc(OC)cc4)C(=O)C3C2C1` (centres undefined), the GI50 is 39.6 µM (inactive) in [1]; 16.1 µM (inactive) in test [20]; 54.6 µM (inactive) in [2]; > 100 µM (inactive) in test [3]; > 100 µM (inactive) in test [4]; 14.9 µM (inactive) in test [5]. In addition, the GI50 was 22.2 µM (inactive) in test [6]; 26.8 µM (inactive) in test [7]; 16.7 µM (inactive) in test [8]; 19.5 µM (inactive) in test [9]; 48.3 µM (inactive) in test [10]; 18.7 µM (inactive) in test [11]. In addition, the GI50 was 55 µM (inactive) in test [12]; 22 µM (inactive) in test [13]; 39.8 µM (inactive) in test [14]; 64.1 µM (inactive) in test [15]; 63.8 µM (inactive) in [16]; > 100 µM (inactive) in test [17]. The GI50 in test [19] is 55.5 µM (inactive).

Consider `CCCNC(=O)Cn1c(C)cc2ccccc21`, for which the GI50 in [1], in [20], in test [2], in [3], in test [4] and in test [5] was > 100 µM (inactive) throughout. Besides, the GI50 in [6] was > 100 µM (inactive); in [7], > 10 µM (inactive); in test [8] it was > 100 µM (inactive); in test [9] it was > 100 µM (inactive); in [10], > 100 µM (inactive); in test [11], > 100 µM (inactive). Besides, the GI50 in test [12], in [13], in [14], in test [15], in test [16] and in test [17] was > 100 µM (inactive) throughout. The GI50 in [19] was > 100 µM (inactive).

Regarding `OC1CN=C2c3ccccc3C(O)(c3ccc(Cl)cc3)N2C1` (centres undefined), the GI50 in test [1] was > 100 µM (inactive); in test [20], 38.1 µM (inactive); in test [2] it was 55.5 µM (inactive); in test [3], 37.4 µM (inactive); in test [4], > 10 µM (inactive); in test [5], > 100 µM (inactive). For the same compound, the GI50 is 88.5 µM (inactive) in [6]; 31 µM (inactive) in test [8]; 19.8 µM (inactive) in test [9]; > 100 µM (inactive) in [10]; 66.7 µM (inactive) in [11]; 50.7 µM (inactive) in [12]. Besides, the GI50 is 35.6 µM (inactive) in test [13]; > 100 µM (inactive) in test [14]; 87.9 µM (inactive) in test [15]; 49.7 µM (inactive) in test [16]; 50 µM (inactive) in [17]; 65.8 µM (inactive) in [19].

In the case of `O=c1c(Cc2ccccc2Cc2c(O)oc3ccccc3c2=O)c(O)oc2ccccc12`, the GI50 in [1], in [2], in test [3], in [4], in [5] and in test [6] was > 100 µM (inactive) in each case. For the same compound, the GI50 in test [7] is > 100 µM (inactive); in test [8] it was > 100 µM (inactive); in [9], 31.6 µM (inactive); in test [10], > 100 µM (inactive); in [11], > 100 µM (inactive); in test [12], > 100 µM (inactive). For the same compound, the GI50 in test [13], in [14], in test [15], in test [16], in test [17] and in [18] was > 100 µM (inactive) each time. Besides, the GI50 in test [19] was > 100 µM (inactive).
